From publication PMC6277198, “Molecular basis for activation of lecithin:cholesterol acyltransferase by a compound that increases HDL cholesterol” (eLife, 2018)
Numbering of substitutions follows the chain as printed. “Also recorded” adds a separate entry of the source.

Legend:
[1] = molecular target: T1, WT LCAT (Homo sapiens, UniProt P04180); assay: Bio-layer interferometry, LCAT binding to ApoA-I HDLs; conditions: 10 μM compound 1
T1 sequence (P04180 25-440): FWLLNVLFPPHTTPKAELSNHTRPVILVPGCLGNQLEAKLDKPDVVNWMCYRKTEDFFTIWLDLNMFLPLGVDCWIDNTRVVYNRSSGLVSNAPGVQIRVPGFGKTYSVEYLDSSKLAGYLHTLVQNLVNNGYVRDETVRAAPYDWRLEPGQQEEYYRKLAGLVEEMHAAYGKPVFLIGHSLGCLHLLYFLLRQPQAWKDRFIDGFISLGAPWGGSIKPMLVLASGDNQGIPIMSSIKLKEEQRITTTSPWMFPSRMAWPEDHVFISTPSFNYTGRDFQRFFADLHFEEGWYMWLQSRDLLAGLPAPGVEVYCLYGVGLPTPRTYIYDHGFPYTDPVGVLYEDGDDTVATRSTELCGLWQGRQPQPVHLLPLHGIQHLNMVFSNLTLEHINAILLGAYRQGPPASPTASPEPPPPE
Procedure: A FortéBio Octet RED system was used to measure the binding of LCAT to ApoA-I HDLs. HDLs were prepared with 1,2-dipalmitoyl-sn-glycero-3-phosphocholine (DPPC), 1-palmitoyl-2-oleoyl-sn-glycero-3-phosphocholine (POPC), and 16:0 biotinyl Cap PE in a ratio of 49.5:49.5:1 ([Manthei et al., 2017]). HDLs were diluted 1/20 in assay buffer (1X PBS pH 7.4, 1 mM EDTA, 60 µM fatty acid free bovine serum albumin) and then immobilized on streptavidin tips for 600 s, followed by a wash in assay buffer for 600 s to remove unbound HDLs. The tips were then moved to buffer containing DMSO or compound 1 and allowed to equilibrate for 120 s before a baseline was established for 30 s. […] In order to determine Kd values, the kobs (from association) were determined at each concentration for the fast phase and then plotted against LCAT concentration. The slope of the line was evaluated as kon using the equation kobs = kon[LCAT]+koff and the resultant Kd = koff/kon. For statistical analysis, the kon, koff, and Kd for each replicate was determined individually and the results were compared to WT using a one-way analysis of variance followed by Tukey’s multiple comparisons post-test in GraphPad Prism.

[2] = molecular target: T2, LCAT R244A (Homo sapiens, UniProt P04180, R268A); assay: Differential scanning fluorimetry; format: binding; conditions: addition of compound 1
T2 construct: hydrolysis of 4-methylumbelliferyl palmitate (MUP) by full-length LCAT; made in house; host or cells: HEK293F (transient transfection, secreted)
T2 sequence (P04180 25-440 R268A): T1 sequence (P04180 25-440) with R244A
Procedure: (§1) Tm values were determined using an Applied Biosystems QuantStudio 7 Flex qPCR machine with two replicates performed at least in triplicate. LCAT at 0.05 mg mL^−1 was diluted into reaction buffer containing 5X Sypro Orange in a final volume of 10 μL in 384-well PCR plates. DMSO or compound 1 was added so that all reactions contained 3% DMSO. The reactions were run from 25–95 °C with a ramp rate of 0.03 °C s^−1. Tm values were determined as the derivative using Protein Thermal Shift software. Significance was determined using a one-way analysis of variance followed by Tukey’s multiple comparisons post-test in GraphPad Prism.

[3] = molecular target: T3, LCAT R244H (Homo sapiens, UniProt P04180, R268H); assay: Differential scanning fluorimetry; format: binding; conditions: addition of compound 1
T3 construct: hydrolysis of 4-methylumbelliferyl palmitate (MUP) by full-length LCAT; made in house; host or cells: HEK293F (transient transfection, secreted)
T3 sequence (P04180 25-440 R268H): T1 sequence (P04180 25-440) with R244H
Procedure: as §1

[4] = molecular target: T4, LPLA2 (Homo sapiens, UniProt Q8NCC3); assay: Differential scanning fluorimetry; format: binding
T4 sequence (Q8NCC3 34-412): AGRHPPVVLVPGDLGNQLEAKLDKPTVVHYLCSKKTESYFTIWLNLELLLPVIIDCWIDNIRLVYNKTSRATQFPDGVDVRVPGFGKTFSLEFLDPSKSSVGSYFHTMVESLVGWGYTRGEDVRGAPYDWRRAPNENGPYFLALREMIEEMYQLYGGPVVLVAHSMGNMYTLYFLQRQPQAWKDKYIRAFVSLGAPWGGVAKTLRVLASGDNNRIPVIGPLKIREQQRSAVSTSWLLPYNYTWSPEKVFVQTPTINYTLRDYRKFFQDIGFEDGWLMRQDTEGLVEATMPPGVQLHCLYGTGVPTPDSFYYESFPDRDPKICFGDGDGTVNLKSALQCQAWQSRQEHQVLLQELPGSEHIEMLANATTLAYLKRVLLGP

[5] = test system: LCAT Y51S, G71I, and Y51S/G71I variants; assay: Differential scanning fluorimetry; format: binding, human
Procedure: as §1

Which “Effect on LCAT binding to HDL (kon, koff, Kd) in BLI” value [1] does the source give for `N#Cc1cnc(N2CCC(c3n[nH]c4c3C(O)(C(F)(F)F)CC(=O)N4)CC2)cc1C(F)(F)F` (centres unmarked) [compound 1, 6-(4-(4-Hydroxy-6-oxo-4-(trifluoromethyl)−4,5,6,7-tetrahydro-1H-pyrazolo[3,4-b]pyridin-3-yl)piperidin-1-yl)−4-(trifluoromethyl)nicotinonitrile] here?
Its value is “does not affect; also recorded: no change”.

What about the “∆Tm” value [2] of the same compound?
The value was 6.0 ˚C.

And the “∆Tm” value [3]?
Its value is 4.8 ˚C.

What about the “Thermal stabilization (DSF)” value [4] of the same compound?
The value was “not stabilized”.

And the “Increase of Tm compared to WT (DSF)” value [5]?
Its value is “far less effective”.
